# Reference: patent US20020137929A1, “1 - (3-heterocyclylphenyl) isothiourea, -isourea, -guanidine and -amidine herbicidal agents” (Intellectual Property Department, BASF Aktiengesellschaft, priority 1998, published 2002)
# Experiments:
# [1] = system: CASOB (Sicklepod); test: Postemergence herbicidal evaluation; type: in vivo, Cassia obtusifolia
# Outline: (§1)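 Two-week seedlings sprayed postemergence at 40 psi; formulation: 1:1 acetone/water, 0.5% TWEEN 20; application ≈0.0156–0.500 kg/ha. Greenhouse grow-out, then 0–9 visual scoring at 4–5 weeks.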
# [2] = system: CHEAL (Lambsquarters, Common); test: Postemergence herbicidal evaluation; type: in vivo, Chenopodium album
# Outline: as §1
# [3] = system: GALAP (Galium); test: Postemergence herbicidal evaluation; type: in vivo, Galium aparine
# Outline: as §1
# [4] = system: ORYSAT (Rice, Tebonnet); test: Postemergence herbicidal evaluation; type: in vivo, Oryza sativa, (L.) Tebonnet
# Outline: as §1
# [5] = system: ZEAMX (Corn, Field); test: Postemergence herbicidal evaluation; type: in vivo, Zea mays
# Outline: as §1
# [6] = system: AMBEL (Ragweed, Common); test: Preemergence herbicidal evaluation; type: in vivo, Ambrosia artemisifolia; details: rated 4-5 weeks after treatment
# Outline: (§2)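 Preemergence soil application of compound, sprayed in aqueous acetone at rates equivalent to about 0.0156 to 0.500 kg per hectare onto freshly sown cups. Plant response was judged by eye on a 0-9 scale four to five weeks later.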
# [7] = system: SETVI (Foxtail, Green); test: Preemergence herbicidal evaluation; type: in vivo, Setaria viridis; details: rated 4-5 weeks after treatment
# Outline: as §2
# [8] = system: GLXMAW (Soybean, Williams); test: Preemergence herbicidal evaluation; type: in vivo, Glycine max, (L.) Merr. cv Williams; details: rated 4-5 weeks after treatment
# Outline: as §2
# [9] = system: ORYSAT (Rice, Tebonnet); test: Preemergence herbicidal evaluation; type: in vivo, Oryza sativa, (L.) Tebonnet; details: rated 4-5 weeks after treatment
# Outline: as §2
# [10] = system: CYPSE (Flatsedge); test: Preemergence weed control under flooded paddy conditions; type: in vivo, Cyperus serotinus; details: rated 3-4 weeks after treatment
# Outline: (§3)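 Values are visual 0-9 scores against a control for a preemergence application into paddy flood water at about 0.0313 to 0.500 kg/ha. Greenhouse duration was three to four weeks.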
# [11] = system: MOOVA (Monochoria); test: as above; type: in vivo, Monochoria vaginalis; details: rated 3-4 weeks after treatment
# Outline: as §3
# [12] = system: CYPIR (Rice Flatsedge); test: Postemergence weed control under flooded paddy conditions; type: in vivo, Cyperus iria; details: postemergence weeds, rated 3 to 4 weeks after treatment
# Outline: (§4)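 With weeds 3 to 5 cm tall and rice at the 1.5 to 2.5 leaf stage, containers were flooded and water held 1.5 to 3 cm above soil. Compounds in 50/50 v/v aqueous/acetone went into the flood water at about 0.0313 to 0.500 kg/ha a.i. Effects were visually rated 0–9 against controls after three to four weeks in the greenhouse.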
# [13] = system: CYPSE (Flatsedge); test: as above; type: in vivo, Cyperus serotinus; details: postemergence weeds, rated 3 to 4 weeks after treatment
# Outline: as §4
# [14] = system: SAGPY (Arrowhead (Pygmaea)); test: as above; type: in vivo, Sagittaria pygmaea; details: postemergence weeds, rated 3 to 4 weeks after treatment
# Outline: as §4
structure (smiles),measurement,setting,value
"C=CCN1C(=O)C(CC(=O)O)SC1=Nc1cc(-n2c(=O)cc(C(F)(F)F)n(C)c2=O)c(F)cc1Cl (stereo not shown) [Compound 62, 3-Allyl-2-{{2-chloro-5-[3,6-dihydro-3-methyl-2,6-dioxo-4-(trifluoromethyl)-1(2H)-pyrimidinyl]-4-fluorophenyl}imino}-4-oxo-5-thiazolidineacetic acid]",Postemergence herbicidal rating CASOB,[1]; Rate 0.0158 kg/ha,1.0
same,Postemergence herbicidal rating CASOB,[1]; Rate 0.0315 kg/ha,2.0
same,Postemergence herbicidal rating CASOB,[1]; Rate 0.0630 kg/ha,6.0
same,Postemergence herbicidal rating CHEAL,[2]; Rate 0.0158 kg/ha,9.0
same,Postemergence herbicidal rating CHEAL,[2]; Rate 0.0315 kg/ha,9.0
same,Postemergence herbicidal rating CHEAL,[2]; Rate 0.0630 kg/ha,9.0
same,Postemergence herbicidal rating GALAP,[3]; Rate 0.0158 kg/ha,1.0
same,Postemergence herbicidal rating GALAP,[3]; Rate 0.0315 kg/ha,5.0
same,Postemergence herbicidal rating GALAP,[3]; Rate 0.0630 kg/ha,5.0
same,Postemergence herbicidal rating ORYSAT,[4]; Rate 0.0158 kg/ha,4.5
same,Postemergence herbicidal rating ORYSAT,[4]; Rate 0.0315 kg/ha,5.0
same,Postemergence herbicidal rating ORYSAT,[4]; Rate 0.0630 kg/ha,7.0
same,Postemergence herbicidal rating ZEAMX,[5]; Rate 0.0158 kg/ha,7.5
same,Postemergence herbicidal rating ZEAMX,[5]; Rate 0.0315 kg/ha,8.0
same,Postemergence herbicidal rating ZEAMX,[5]; Rate 0.0630 kg/ha,8.0
same,Preemergence herbicidal rating AMBEL,[6]; rate 0.0156 kg/ha,2.0
same,Preemergence herbicidal rating AMBEL,[6]; rate 0.0313 kg/ha,5.0
same,Preemergence herbicidal rating AMBEL,[6]; rate 0.0625 kg/ha,7.0
same,Preemergence herbicidal rating AMBEL,[6]; rate 0.1250 kg/ha,9.0
same,Preemergence herbicidal rating AMBEL,[6]; rate 0.2500 kg/ha,7.0
same,Preemergence herbicidal rating SETVI,[7]; rate 0.0156 kg/ha,0.0
same,Preemergence herbicidal rating SETVI,[7]; rate 0.0313 kg/ha,0.0
same,Preemergence herbicidal rating SETVI,[7]; rate 0.0625 kg/ha,6.0
same,Preemergence herbicidal rating SETVI,[7]; rate 0.1250 kg/ha,9.0
same,Preemergence herbicidal rating SETVI,[7]; rate 0.2500 kg/ha,9.0
same,Preemergence herbicidal rating GLXMAW,[8]; rate 0.0156 kg/ha,0.0
same,Preemergence herbicidal rating GLXMAW,[8]; rate 0.0313 kg/ha,0.0
same,Preemergence herbicidal rating GLXMAW,[8]; rate 0.0625 kg/ha,1.0
same,Preemergence herbicidal rating GLXMAW,[8]; rate 0.1250 kg/ha,2.0
same,Preemergence herbicidal rating GLXMAW,[8]; rate 0.2500 kg/ha,7.0
same,Preemergence herbicidal rating ORYSAT,[9]; rate 0.0156 kg/ha,0.0
same,Preemergence herbicidal rating ORYSAT,[9]; rate 0.0313 kg/ha,0.0
same,Preemergence herbicidal rating ORYSAT,[9]; rate 0.0625 kg/ha,1.0
same,Preemergence herbicidal rating ORYSAT,[9]; rate 0.1250 kg/ha,4.0
same,Preemergence herbicidal rating ORYSAT,[9]; rate 0.2500 kg/ha,6.0
same,CYPSE herbicidal effect rating,[10]; 0.0313 kg/ha,0.0
same,CYPSE herbicidal effect rating,[10]; 0.0625 kg/ha,0.0
same,CYPSE herbicidal effect rating,[10]; 0.1250 kg/ha,0.0
same,CYPSE herbicidal effect rating,[10]; 0.2500 kg/ha,0.0
same,MOOVA herbicidal effect rating,[11]; 0.0313 kg/ha,4.0
same,MOOVA herbicidal effect rating,[11]; 0.0625 kg/ha,9.0
same,MOOVA herbicidal effect rating,[11]; 0.1250 kg/ha,9.0
same,MOOVA herbicidal effect rating,[11]; 0.2500 kg/ha,9.0
same,Herbicidal rating CYPIR,[12]; Rate 0.0313 kg/ha,0.0
same,Herbicidal rating CYPIR,[12]; Rate 0.0625 kg/ha,2.0
same,Herbicidal rating CYPIR,[12]; Rate 0.1250 kg/ha,9.0
same,Herbicidal rating CYPIR,[12]; Rate 0.2500 kg/ha,9.0
same,Herbicidal rating CYPSE,[13]; Rate 0.0313 kg/ha,0.0
same,Herbicidal rating CYPSE,[13]; Rate 0.0625 kg/ha,0.0
same,Herbicidal rating CYPSE,[13]; Rate 0.1250 kg/ha,0.0
same,Herbicidal rating CYPSE,[13]; Rate 0.2500 kg/ha,0.0
same,Herbicidal rating SAGPY,[14]; Rate 0.0313 kg/ha,0.0
same,Herbicidal rating SAGPY,[14]; Rate 0.0625 kg/ha,0.0
same,Herbicidal rating SAGPY,[14]; Rate 0.1250 kg/ha,3.0
same,Herbicidal rating SAGPY,[14]; Rate 0.2500 kg/ha,6.0
